Read-outs that look alike come from different tables or passages of the source.
Experiments:
glucose transporters = tested on: T1, glucose transporters; experiment: 3-O-methyl-D-[3H] glucose uptake in A549 cells; assay type: cell-based, human; settings: read-out: IC50 uptake of 3H-labeled 3-O-methylglucose
T1 construct: IC50 uptake of 3H-labeled 3-O-methylglucose; other: A549 cells; compared with 3-O-methylglucose uptake; other: A549 cells treated with drugs for 1 min; other: A549 cells, glucose uptake assay; other
Method: FIGS. 2A-2D. Inhibition of Glucose Transport by A18 and E11. (a) Inhibition of 3-O-methyl¬D-[3H] glucose uptake in A549 cells by A18. (b) Inhibition of 3-O-methyl-D-[3H] glucose uptake in A549 cells by E11. (c) Inhibition of 2-deoxy-D-[3H] glucose uptake in A549 […] cells by A18. (d) Inhibition of 2-deoxy-D-[3H] glucose uptake in A549 cells by E11.
Direct action on glucose transporters was measured by monitoring uptake of 3H-labeled 3-O-methylglucose, which is transported by glucose transporters but not metabolized further, allowing the assessment of initial rate of glucose uptake. […] Initial uptake can also be assessed by measuring the uptake of 3H-labeled 2-deoxy-D-glucose, which gets into the cell through glucose transporters and is phosphorylated by hexokinase but cannot be metabolized further due to the lack of oxygen at the second position.

HEK 293T = experiment: flow cytometric cell cycle analysis in HEK 293T; assay type: cell-based; settings: 5 μM, 24 h
Method: FIGS. 25A-25C. A18 and E11 inhibit cell cycle progression in the S phase. HEK 293T were incubated with DMSO (a), 5 μM A18 (b) or 5 μM E11 (c) for 24 h before they were harvested for cell cycle analysis.

SRE = SRE reporter gene assay; assay type: cell-based
From the text: (§1) FIGS. 28A-28D. (a) A18 and E11 inhibit NFAT and A18, but not E11, stimulates SRE reporter gene signal. (b) E11 inhibits NFAT, NF-κB and IL2, but not MEF-2 or AP-1 pathways, in Jurkat T cells. (c) Glucose inhibitor stimulates SRE reporter gene signal.

HEK 293T cells [1] = tested on: HEK 293T cells
NF-κB = NF-κB pathway reporter in Jurkat T cells; assay type: cell-based
From the text: as §1

HEK 293T cells [2] = experiment: Western blot for DNA damage and apoptosis markers in HEK 293T; settings: 72 h (DNA damage), 24 h (apoptosis)

| Compound | IC50 (glucose transporters) | additional cells in S phase (HEK 293T) | SRE reporter gene signal (SRE) | DNA damage or apoptosis (phosphor-p53, active caspase 3, 7 and 9) (HEK 293T cells [1]) | NF-κB pathway (NF-κB) | DNA damage or apoptosis (phosphor-p53, active caspase 3, 7 and 9) (HEK 293T cells [2]) |
| --- | --- | --- | --- | --- | --- | --- |
| CC[C@@H](C)[C@H]1C(=O)NCC(=O)N(C)CC/C=C/C(=O)OCC(C)(C)C(=O)C(=O)N2CCCC[C@H]2C(=O)O[C@H](CCc2ccc(OC)c(OC)c2)c2cccc(c2)NC(=O)CCC(=O)N(C)[C@@H](CC(C)C)C(=O)N[C@H](Cc2ccccc2)C(=O)N1C [A18] | 18.7 nM | approximately 10% | stimulates | do not induce DNA damage or apoptosis |  |  |
| Gly-^MSerBu-Nal-^MAla [E11] | 38.2 nM | approximately 10% |  |  | inhibits | do not induce DNA damage or apoptosis |

Source: US11708391B2, “Rapaglutins, novel inhibitors of GLUT and use thereof” (The Johns Hopkins University, priority 2016, dated 2023)
